Measured values: US20100016441A1, “BIOCIDAL COMPOSITION AND METHOD” (priority 2008, published 2010)

Legend:
[1] = test system: pool of microorganisms; test: Rapid decontamination and long term preservation challenge test in titanium dioxide mineral slurry (pH 8.35); format: cell-based; details: for concentration, used alone, obtaining 4 log10 reduction in microorganisms: 48 hours after second inoculation at seven days; for effective concentration, used alone (4 log10 reduction): pH 8.35, 30 min after initial inoculation
Experimental: (§1) The antimicrobial profiles of DBNPA, BNPD, and a combination of DBNPA-BNPD (3:1 w/w) are tested in a commercial water-based latex (UCAR Latex 626 available from The Dow Chemical Company), and a generic mineral slurry sample. Commercial latexes vary in pH values from slightly acidic to basic. For the purpose of this study, a latex with a basic pH (8.7) is selected, as it is known that both BNPD and DBNPA have limited chemical stability at alkaline pH. Mineral slurries vary in pH, but most often they are alkaline. For the purpose of this study, a titanium dioxide slurry with pH of 8.35 was selected.
(§2) Both the latex and the mineral slurry are free of contamination prior to testing. At time zero, the test matrices are inoculated with a pool of microorganisms (listed below) to a final concentration of 5×10^6 CFU/ml. Aliquots of the contaminated samples are weighed into a series of sterile containers followed by addition of the appropriate volume of biocide required to achieve the desired concentration. A control sample, lacking biocide, is included in each evaluation. Following biocide addition, samples are thoroughly mixed and aliquots are removed and streaked to tryptic soy agar plates, at various time points, for the enumeration of surviving microorganisms. All agar plates are incubated at 30° C. for 72 hours prior to assessment of viable bacteria. In all the ensuing results, a minimum of 4 log10 reduction in microorganism concentration, as compared to the control sample, is considered significant efficacy.
Microorganisms: Twenty-four hour tryptic soy broth cultures are combined in equal parts for formulation inoculation at a final concentration of 5×10^6 CFU/ml. Organisms utilized: Pseudomonas aeruginosa (ATCC#15442), Pseudomonas aeruginosa (ATCC#10145), Staphylococcus aureus (ATCC#6538), Burkholderia cepacia (ATCC#25416), Pseudomonas fluorescens B (environmental isolate), Pseudomonas oleovorans (environmental isolate), Enterococcus sulfureus (environmental isolate). […] The samples are stored at ambient conditions for three or seven days, respectively, at which point a second inoculation is administered, to test the long term preservation efficacy of the biocides. Aliquots are removed at 4 h and/or 24 h or 48 h following the second inoculation, and streaked on tryptic soy agar plates, for the enumeration of surviving microorganisms.
(§3) Synergy: The synergy indexes reported here are measured and calculated using Formula 1. In this approach, a synergy index (SI) of 1 indicates additivity. If the synergy index is less than 1, synergy has occurred, while a synergy index greater than 1 indicates antagonism.
(§4) Synergy Index=CA/Ca+CB/Cb (1)
Ca=concentration of antimicrobial A, alone, producing a predetermined end-point […]

[2] = test system: pool of microorganisms; test: Rapid decontamination and long term preservation challenge test in UCAR Latex 626 (pH 8.7); format: cell-based; details: for active concentration, used alone, achieving 4 log10 reduction in bacterial concentration: UCAR Latex 626, pH 8.7, 1 h after initial inoculum; for concentration, used alone, achieving decontamination: 24 h after second inoculation at seven days
Experimental: as §1, §2
Microorganisms: Twenty-four hour tryptic soy broth cultures are combined in equal parts for formulation inoculation at a final concentration of 5×10^6 CFU/ml. Organisms utilized: Pseudomonas aeruginosa (ATCC#15442), Pseudomonas aeruginosa (ATCC#10145), Staphylococcus aureus (ATCC#6538), Burkholderia cepacia (ATCC#25416), Pseudomonas fluorescens B (environmental isolate), Pseudomonas oleovorans (environmental isolate), Enterococcus sulfureus (environmental isolate). To assess the rapid decontamination efficacy of the biocides, aliquots are removed at 60 minutes following the initial inoculation, and streaked on tryptic soy agar plates for the enumeration of surviving microorganisms. The samples are stored at ambient conditions for three or seven days, respectively, at which point a second inoculation is administered, to test the long term preservation efficacy of the biocides. Aliquots are removed at 4 h and/or 24 h or 48 h following the second inoculation, and streaked on tryptic soy agar plates, for the enumeration of surviving microorganisms.
as §3, §4
Ca=concentration of antimicrobial A, alone, producing a predetermined end-point
Cb=concentration of antimicrobial B, alone, producing a predetermined end-point
CA and CB=the concentrations of antimicrobials A and B, respectively, together in a mixture, that produce a predetermined end-point

[3] = going from pH 6 to pH 8.9; cited from earlier work

For O=[N+]([O-])C(Br)(CO)CO [BNPD, 2-bromo-2-nitro-1,3-propanediol], the “concentration, used alone, obtaining 4 log10 reduction in microorganisms” value [1] was 35.1 ppm, the “effective concentration, used alone (4 log10 reduction)” value [1] was greater than 600 ppm and the “active concentration, used alone, achieving 4 log10 reduction in bacterial concentration” value [2] was greater than 600 ppm. For the same compound, the “concentration, used alone, achieving decontamination” value ([2]; UCAR Latex 626) was 95.7 ppm and the “effective active concentration (4 log10 reduction)” value ([2]; UCAR Latex 626, 24 h after second inoculation at three days) was 95.7 ppm.
For N#CC(Br)(Br)C(N)=O [DBNPA, 2,2-dibromo-3-nitrilopropionamide], the “concentration, used alone, obtaining 4 log10 reduction in microorganisms” value [1] was 400 ppm, the “effective concentration, used alone (4 log10 reduction)” value [1] was 23.4 ppm and the “active concentration, used alone, achieving 4 log10 reduction in bacterial concentration” value [2] was 140 ppm. The “concentration, used alone, achieving decontamination” value ([2]; UCAR Latex 626) was “did not achieve decontamination” and the “factor of increase of rate of disappearance” value [3] was “about 450”.
